These compounds were tested against Human factor Xa (Homo sapiens, UniProt P00742) (assay: Xa Assay). Conditions: not given.
Type: biochemical
Parameters: purchased Enzyme Research Laboratories, South Bend Ind

Chain of Human factor Xa (P00742 41-179 limits assumed): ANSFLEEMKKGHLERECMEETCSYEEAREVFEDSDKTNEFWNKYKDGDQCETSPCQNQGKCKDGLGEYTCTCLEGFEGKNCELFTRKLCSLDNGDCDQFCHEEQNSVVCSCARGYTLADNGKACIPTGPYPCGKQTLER
Chain of Human factor Xa (P00742 235-488 limits assumed): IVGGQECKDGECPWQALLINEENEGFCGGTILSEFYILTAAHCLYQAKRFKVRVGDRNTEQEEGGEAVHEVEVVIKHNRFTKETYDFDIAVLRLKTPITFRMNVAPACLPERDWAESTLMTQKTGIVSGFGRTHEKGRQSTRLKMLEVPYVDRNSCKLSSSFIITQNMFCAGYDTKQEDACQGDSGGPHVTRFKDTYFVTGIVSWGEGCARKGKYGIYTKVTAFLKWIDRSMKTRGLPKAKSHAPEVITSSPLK

SMILES | % Inhibition Factor Xa (100 µM) [%]
O=C(Cn1c(-c2ccc(-c3ccccc3)cc2)c(Cl)nc(NCCc2ccc(Cl)cc2)c1=O)NCCc1cccnc1 [Example E-0119] | 5

Same assay, conditions: at 30 µM

SMILES | % Inhibition Factor Xa (30 µM) [%]
N=C(N)c1ccc(CNC(=O)Cn2c(-c3cccc(N)c3)c(Cl)nc(NCCCCN3CCCC3)c2=O)cc1 [1543-21] | 27
CSCC(C(=O)NCc1ccc(C(=N)N)cc1)n1c(-c2ccccc2)c(Cl)nc(NCCc2ccccc2)c1=O (stereo not shown) [Example 1517-16] | 0
N=C(N)c1ccc(CNC(=O)Cn2c(-c3ccsc3)c(Cl)nc(NCCc3cccc(Cl)c3)c2=O)cc1 [Example 1517-19] | 0
C[C@H](C(=O)NCc1ccc(C(=N)N)cc1)n1c(-c2ccccc2)c(Cl)nc(NCCc2ccccc2)c1=O [Example 1517-17] | 0
CCCCNc1nc(Cl)c(-c2cccc(N)c2)n(CC(=O)NCc2ccc(C(=N)N)cc2F)c1=O [1543-36] | 15

More lines, now with the values ahead:

% Inhibition Factor Xa (30 µM) [%] | SMILES
14 | N=C(N)c1ccc(CNC(=O)Cn2c(-c3cccc(N)c3)c(Cl)nc(NC3CCC3)c2=O)c(F)c1 [1543-39]
12 | N=C(N)c1ccc(CNC(=O)Cn2c(-c3cccc(N)c3)c(Cl)nc(NCCCO)c2=O)cc1 [1543-13]
0 | CC(C)(C)CCNc1nc(Cl)c(-c2ccccc2)n(CC(=O)NCc2ccc(C(=N)N)cc2)c1=O [Example 1517-41]
11 | CC(CNc1nc(Cl)c(-c2cccc(N)c2)n(CC(=O)NCc2ccc(C(=N)N)cc2)c1=O)N(C)C (stereo not shown) [1543-19]
14 | N=C(N)c1ccc(CNC(=O)Cn2c(-c3cccc(N)c3)c(Cl)nc(NC3CC3)c2=O)c(F)c1 [1543-33]
0 | CC(C)N(C)c1nc(Cl)c(-c2ccccc2)n(CC(=O)NCc2ccc(C(=N)N)cc2)c1=O [Example 1517-31]
14 | CNc1nc(Cl)c(-c2cccc(N)c2)n(CC(=O)NCc2ccc(C(=N)N)cc2)c1=O [1543-05]

Same assay, conditions: at 30 µM inhibitor

SMILES | % Inhibition Factor Xa (30 µM)
Cc1c(N)cccc1-c1cnc(NC(C)C)c(=O)n1CC(=O)NCc1ccc(C(=N)N)cc1 [Example 98] | 10% @ 30
CCc1c(Cl)nc(NCCc2ccc(Cl)cc2)c(=O)n1CC(=O)NCc1ccc(C(=N)N)cc1 [1471-58] | 0%
CSCC(C(=O)NCc1ccc(C(=N)N)cc1)n1c(-c2ccccc2)c(Cl)nc(NCc2ccccc2)c1=O (stereo not shown) [Example 1517-04] | 0%
N=C(N)c1ccc(CNC(=O)Cn2c(-c3ccc4c(c3)OCO4)c(Cl)nc(NCCc3cccnc3)c2=O)cc1 [1471-48] | 17%
N=C(N)c1ccc(CNC(=O)Cn2c(-c3ccc(Cl)cc3)c(Cl)nc(NCCc3cccc(Cl)c3)c2=O)cc1 [1471-22] | 28%
CC(C)Nc1nc(Cl)c(-c2cc(N)ccc2F)n(CC(=O)NCc2ccc(C(=N)N)cc2F)c1=O [Example 73] | 0%
Nc1n[nH]c2ccc(CNC(=O)Cn3c(-c4ccccc4)cnc(NCCc4ccccc4)c3=O)cc12 [Example 38] | 22%
N=C(N)c1ccc(CNC(=O)Cn2c(-c3ccc4ccccc4c3)c(Cl)nc(NCCc3ccccc3)c2=O)cc1 [Example 82] | 32% @ 30
Cc1c(Cl)nc(NCCN2CCOCC2)c(=O)n1CC(=O)NCc1ccc(C(=N)N)cc1 [1471-4] | 0%
Cc1c(Cl)nc(NCCc2cccc(Cl)c2)c(=O)n1CC(=O)NCc1ccc(C(=N)N)cc1 [1471-6] | 14%
CC(C)Nc1nc(Cl)c(-c2cccc(N)c2)n(CC(=O)NCc2ccc(C(=N)N)c(F)c2)c1=O [Example 42] | 0%
N=C(N)NC/C=C\CNC(=O)Cn1c(-c2ccccc2)cnc(NCCc2ccccc2)c1=O [Example 37] | 0%
Cc1c(Cl)nc(NCCc2ccc(Cl)cc2)c(=O)n1CC(=O)NCc1ccc(C(=N)N)cc1 [1471-2] | 10%
CC(C)Nc1nc(Cl)c(-c2cccc(N)c2)n(CC(=O)NCCc2ccc(C(=N)N)cc2)c1=O [Example 62] | 10%
N=C(N)c1ccc(CNC(=O)Cn2c(-c3ccc4c(c3)OCO4)c(Cl)nc(NCCc3ccc(Cl)cc3)c2=O)cc1 [1471-42] | 15%
N=C(N)c1ccc(CNC(=O)Cn2c(-c3ccc(Cl)cc3)c(Cl)nc(NCCc3ccc(Cl)cc3)c2=O)cc1 [1471-18] | 26%

Other lines, results leading:

% Inhibition Factor Xa (30 µM) | SMILES
22% @ 30 | N=C(N)c1ccc(CNC(=O)Cn2c(-c3ccccc3)c(Cl)nc(NCCc3ccncc3)c2=O)cc1 [Example 19]
5% | CCCCC(CC)Nc1nc(Cl)c(-c2ccccc2)n(CC(=O)NCc2ccc(C(=N)N)cc2)c1=O (stereo not shown) [1512-12]
25% | N=C(N)c1ccc(CNC(=O)Cn2c(-c3cccc(Cl)c3)c(Cl)nc(NCCc3cccnc3)c2=O)cc1 [1471-32]
23% | N=C(N)c1ccc(CNC(=O)Cn2c(-c3ccccc3)c(Cl)nc(NC3CCC3)c2=O)cc1 [1507-21]
0% | N=C(N)c1ccc(CNC(=O)Cn2c(-c3cccc(N)c3)c(Cl)nc(NC3CCC3)c2=O)cc1F [Example 40]
9% | CC(C)Nc1nc(Cl)c(-c2cccnc2)n(CC(=O)NCc2ccc(C(=N)N)cc2)c1=O [Example 75]
0% | N=C(N)c1ccc(CNC(=O)Cn2c(-c3ccccc3)c(Cl)nc(NC3CCS(=O)(=O)C3)c2=O)cc1 (stereo not shown) [1507-36]
23% | N=C(N)c1ccc(CNC(=O)Cn2c(-c3ccccc3)c(Cl)nc(NCCc3cccnc3)c2=O)cc1 [1471-16]
0% | N=C(N)c1ccc(CNC(=O)Cn2c(-c3ccccc3)c(Cl)nc(NCCc3ccncc3)c2=O)cc1 [1471-13]
19% | COC(=O)c1cccc(-c2c(Cl)nc(NC(C)C)c(=O)n2CC(=O)NCc2ccc(C(=N)N)cc2)c1 [Example 64]
10% | COc1ccc(CCNc2nc(Cl)c(-c3ccccc3)n(CC(=O)NCc3ccc(C(=N)N)cc3)c2=O)cc1OC [1512-05]
16% @ 30 | Cc1ccccc1-c1c(Cl)nc(NCCc2ccccc2)c(=O)n1CC(=O)NCc1ccc(C(=N)N)cc1 [Example 78]
16% @ 30 | N=C(N)c1ccc(CNC(=O)Cn2c(-c3cccc(N)c3)c(Cl)nc(NC3CCC3)c2=O)cc1 [Example 90]
9% | N=C(N)c1ccc(CNC(=O)Cn2c(-c3ccccc3)c(Cl)nc(NCCc3ccc(Cl)c(Cl)c3)c2=O)cc1 [1507-44]
45% | N=C(N)c1ccc(CNC(=O)Cn2c(-c3ccccc3)c(Cl)nc(NCCc3ccc(Cl)cc3)c2=O)cc1 [1471-10]
10% | N=C(N)c1ccc(CNC(=O)Cn2c(-c3ccccc3)c(Cl)nc(NCCCn3ccnc3)c2=O)cc1 [1507-05]
9% | N=C(N)c1ccc(CNC(=O)Cn2c(-c3ccccc3)c(Cl)nc(NC3CCc4ccccc43)c2=O)cc1 (stereo not shown) [1507-02]
4% | N=C(N)c1ccc(CNC(=O)Cn2c(-c3ccccc3)c(Cl)nc(NCC3COc4ccccc4O3)c2=O)cc1 (stereo not shown) [1512-01]
21% | N=C(N)c1ccc(CNC(=O)Cn2c(-c3ccccc3)c(Cl)nc(NCc3ccccc3Cl)c2=O)cc1 [1507-03]

Same assay, conditions: inhibitor at 100 µM

% Inhibition Factor Xa (100 µM) [%] | SMILES
6 | COc1ccc(-c2c(Cl)nc(NCCc3ccccc3)c(=O)n2CC(=O)NCCc2ccncc2)cc1 [Example E-0100]

Reference: patent publication US6908919B2, “Substituted polycyclic aryl and heteroaryl pyrazinones useful for selective inhibition of the coagulation cascade” (Pharmacia Corporation, priority 1999, dated 2005)
